Measured values taken from article PMC9979702 (Bioorganic & Medicinal Chemistry Letters, 2023).

How the values were obtained:
hERG = hERG (Homo sapiens, UniProt Q12809); conditions: even at 100 µM
SARS-CoV-2 = type: cell-based; conditions: Vero cells

Chain of hERG (Q12809 whole entry): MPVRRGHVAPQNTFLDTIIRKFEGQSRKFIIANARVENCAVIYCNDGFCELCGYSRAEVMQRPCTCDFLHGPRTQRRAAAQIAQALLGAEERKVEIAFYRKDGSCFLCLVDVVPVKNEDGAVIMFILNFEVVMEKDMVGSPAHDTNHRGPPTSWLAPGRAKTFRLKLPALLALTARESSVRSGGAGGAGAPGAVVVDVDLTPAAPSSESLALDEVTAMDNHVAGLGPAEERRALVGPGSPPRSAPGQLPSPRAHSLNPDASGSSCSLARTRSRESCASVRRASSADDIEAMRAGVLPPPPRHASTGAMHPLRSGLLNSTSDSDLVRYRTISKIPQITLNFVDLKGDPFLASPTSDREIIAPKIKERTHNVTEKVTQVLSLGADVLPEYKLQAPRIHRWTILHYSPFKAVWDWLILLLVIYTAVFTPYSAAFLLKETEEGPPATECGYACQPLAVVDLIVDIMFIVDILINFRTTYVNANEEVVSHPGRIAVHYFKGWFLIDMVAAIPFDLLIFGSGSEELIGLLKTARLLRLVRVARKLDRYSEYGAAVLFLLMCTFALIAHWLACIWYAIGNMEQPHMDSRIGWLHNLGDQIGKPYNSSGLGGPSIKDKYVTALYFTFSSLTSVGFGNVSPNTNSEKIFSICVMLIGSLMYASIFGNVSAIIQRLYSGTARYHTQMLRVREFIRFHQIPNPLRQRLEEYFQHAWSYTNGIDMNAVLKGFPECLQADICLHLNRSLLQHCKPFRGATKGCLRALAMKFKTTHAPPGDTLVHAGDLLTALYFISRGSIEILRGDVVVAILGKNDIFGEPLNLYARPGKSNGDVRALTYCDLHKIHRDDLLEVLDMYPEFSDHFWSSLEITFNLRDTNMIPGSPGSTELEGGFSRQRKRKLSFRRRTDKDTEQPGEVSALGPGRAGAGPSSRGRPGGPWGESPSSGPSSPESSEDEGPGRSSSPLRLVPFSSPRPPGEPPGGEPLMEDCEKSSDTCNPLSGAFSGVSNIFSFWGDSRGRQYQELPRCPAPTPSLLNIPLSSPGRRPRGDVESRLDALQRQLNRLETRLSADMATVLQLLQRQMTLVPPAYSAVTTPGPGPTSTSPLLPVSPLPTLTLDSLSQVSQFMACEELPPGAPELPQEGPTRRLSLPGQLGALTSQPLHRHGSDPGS

| Structure (SMILES) | hERG binding (in words) (hERG) | antiviral activity against SARS-CoV-2 (in words) (SARS-CoV-2) |
| --- | --- | --- |
| O=C(O)c1c(Nc2cccc(F)c2)[nH]c2cc(Cl)ccc2c1=O [Compound 9b, 7-chloro-2-((3-fluorophenyl)amino)-4-oxo-1,4-dihydroquinoline-3-carboxylic acid] | no hERG binding was detected | – |
| O=c1cc(Nc2cccc(F)c2)[nH]c2cc(F)c(F)cc12 [Compound 10, 6,7-difluoro-2-((3-fluorophenyl)amino)quinolin-4(1H)-one] | – | no activity |
| O=C(O)c1c(Nc2cccc(F)c2)[nH]c2cc(F)c(F)cc2c1=O [Compound 9f, 6,7-difluoro-2-((3-fluorophenyl)amino)-4-oxo-1,4-dihydroquinoline-3-carboxylic acid] | – | had antiviral activity |
| CN(C)CCCNc1[nH]c2cc(Cl)ccc2c(=O)c1C(=O)O [Compound 7a, 7-chloro-2-((3-(dimethylamino)propyl)amino)-4-oxo-1,4-dihydroquinoline-3-carboxylic acid] | – | no activity |
